{"source": "patent US11744818B2", "about": "“Application of trans-1,3-dilinolein in the preparation of medicaments for treating gastric cancer, stomachic tonic, health products and foods” (Lanzhou University, priority 2021, dated 2023)", "key": {"[1]": {"tested_on": "human gastric cancer cell line HGC-27", "assay": "Cytotoxicity to HGC-27 cells (MTS, 48 hours)", "format": "cell-based", "conditions": "for killing of gastric cancer cells: concentration of 300 μm and more; for killing effect on HGC-27: 0-500 μM, 48 hours", "experimental": "(§1) At 37° C. and 5% CO2, human gastric cancer cell line HGC-27 cells and human gastric mucosal epithelial cell line GES-1 cells (coming from China Center for Type Culture Collection (Wuhan, China)) are respectively cultured in RPMI Medium Modified (Hyclone, SH30809.01) and Dulbecco's Modified Eagle's Medium-high glucose (Sigma, D6429), in which 10% fetal calf serum (Gibco, 10270-106) and 1% penicillin-streptomycin (Gibco, 15140-122) are supplemented.\nThe cytotoxicity of HGC-27 cells by trans-1,3-dilinolein is determined. 5000 cells are plated in a 96-well plate, and each well is added with 100 μL medium. 12 hours after cell attachment, each well is given 100 μL normal medium that contained different concentrations (0 μM, 50 μM, 100 μM, 200 μM, 300 μM, 400 μM, 500 μM) of trans-1,3-dilinolein and had been preheated, and cultured in incubators under the conditions of 5% CO2, 37° C., normal oxygen and 1% oxygen respectively for 48 hours. The medium in each well is drawn, and serum-free medium is added into each well to formulate 60 μL MTS (Promega) at ⅙ the initial concentration, which are correspondingly incubated in incubators under the conditions of 5% CO2, 37° C., normal oxygen and 1% oxygen for 2 hours. The absorbance at 490 nm is determined with a microplate reader (Thermo Scientific).\n(§2) Two-side Student's t-test is conducted by using EXCEL to determine the statistical significance of two groups of measurements. P value<0.05 is considered to be statistically significant. Unless otherwise specified, all data are expressed as mean ±standard deviation."}, "[2]": {"tested_on": "human gastric mucosal epithelial cell line GES-1", "assay": "Proliferation of GES-1 cells (CCK8, 48 hours)", "format": "cell-based", "conditions": "for effect on the proliferation of GES-1: 25 μM to 400 μm, 48 hours", "experimental": "as §1\nThe cytotoxicity of GES-1 cells by trans-1,3-dilinolein is determined. 10000 cells are plated in a 96-well plate, and each well is added with 100 μL medium. 12 hours after cell attachment, each well is given 100 μL normal medium that contained different concentrations (0 μM, 6.25 μM, 12.5 μM, 25 μM, 50 μM, 100 μM, 200 μM, 400 μM, 800 μM, 1000 μM) of trans-1,3-dilinolein and had been preheated, and cultured in incubators under the conditions of 5% CO2, 37° C., normal oxygen and 1% oxygen respectively for 48 hours. The medium in each well is drawn, and serum-free medium is added into each well to formulate 60 μL CCK8 (ABMole BioScience) at 1/11 the initial concentration, which are correspondingly incubated in incubators under the conditions of 5% CO2, 37° C., normal oxygen and 1% oxygen for 40 minutes. The absorbance at 450 nm is determined with a microplate reader (Thermo Scientific).\nas §2"}}, "data": [{"compound": "CCCCC/C=C/C/C=C/CCCCCCCC(=O)OCC(O)COC(=O)CCCCCCC/C=C/C/C=C/CCCCC", "note": "[trans-1,3-dilinolein, [2-hydroxy-3-[(9E,12E)-octadeca-9,12-dienoyl]oxypropyl](9E,12E)-octadeca-9,12-dienoate]", "values": [{"measurement": "killing of gastric cancer cells", "setting": "[1]; hypoxic conditions compared with normal oxygen", "result": "the killing effect is more significant"}, {"measurement": "killing of gastric cancer cells", "setting": "[1]; normal oxygen", "result": "kills gastric cancer cells significantly"}, {"measurement": "killing effect on HGC-27", "setting": "[1]; hypoxic (1% oxygen) compared with normal oxygen, FIG. 4D", "result": "stronger killing effect"}, {"measurement": "killing effect on HGC-27", "setting": "[1]; normal oxygen, FIG. 4C", "result": "concentration-dependent killing effect"}, {"measurement": "proliferation of normal gastric mucosal epithelial cells", "setting": "[2]; concentration of 300 μm and more", "result": "significantly promote the proliferation"}, {"measurement": "effect on the proliferation of GES-1", "setting": "[2]; hypoxic (1% oxygen), FIG. 4B", "result": "promotion effects on the proliferation"}, {"measurement": "effect on the proliferation of GES-1", "setting": "[2]; normal oxygen, FIG. 4A", "result": "promotion effects on the proliferation"}]}]}
